From patent publication US9169217B2, “Arylalkyl esters of 4-amino-6-(substituted phenyl)-picolinates and 6-amino-2-(substituted phenyl)-pyrimidinecarboxylates and their use as selective herbicides for crops” (Dow AgroSciences LLC, priority 2011, dated 2015) come the findings set out here.

Structures are written as SMILES.

Series [1] has as its system Echinochloa crus-galli (L.) P.BEAUV. (barnyardgrass). In words: In-water applied herbicidal activity in transplanted paddy rice (Example 17). The format is in vivo. The note with it: Echinochloa crus-galli, 504 h; rice cropping systems, in-water applied (paddy), 35 g ae/ha, 21 DAA; may represent multiple trials; read-out: Visual Injury (%) ECHCG. Here is the method:
(§1) Weed seeds or nutlets of the desired test plant species were planted in puddled soil (mud) prepared by mixing a non-sterilized mineral soil (28 percent silt, 18 percent clay, and 54 percent sand, with a pH of about 7.3 to 7.8 and an organic matter content of about 1.0 percent) and water at a ratio of 100 kilograms (kg) of soil to 19 liters (L) of water. The prepared mud was dispensed in 250 mL aliquots into 480 mL non-perforated plastic pots with a surface area of 91.6 cm^2 leaving a headspace of 3 cm in each pot. Rice seeds were planted in Sun Gro MetroMix 306 planting mixture, which typically has a pH of 6.0 to 6.8 and an organic matter content of about 30 percent, in plastic plug trays. Seedlings at the second or third leaf stage of growth were transplanted into 650 mL of mud contained in 960 mL non-perforated plastic pots with a surface area of 91.6 cm^2 four days prior to herbicide application. The paddy was created by filling the 3 cm headspace of the pots with water. When required to ensure good germination and healthy plants, a fungicide treatment and/or other chemical or physical treatment was applied. The plants were grown for 4-14 d in a greenhouse with an approximate 14-h photoperiod which was maintained at about 29° C. during the day and 26° C. during the night. Nutrients were added as Osmocote (17:6:10, Nitrogen:Phosphorus:Potassium (N:P:K)+minor nutrients) at 2 grams (g) per cup. Water was added on a regular basis to maintain the paddy flood, and supplemental lighting was provided with overhead metal halide 1000-Watt lamps as necessary. The plants were employed for testing when they reached the second or third true leaf stage.
(§2) Treatments consisted of esters of compounds 1-4, 6-33, 35-39, 41 and 42 and A-G. Compound A is methyl 4-amino-3-chloro-6-(4-chloro-3-ethoxy-2-fluorophenyl)-5-fluoropicolinate; compound B is methyl 4-amino-3-chloro-6-(4-cyclopropylphenyl)-5-fluoropicolinate; compound C is methyl 4-amino-3-chloro-6-(2,4-dichloro-3-methoxyphenyl)picolinate; compound D is methyl 6-amino-2-(4-chloro-2-fluoro-3-methoxyphenyl)-5-vinylpyrimidine-4-carboxylate; compound E is methyl 4-amino-3-chloro-6-(4-chloro-2-fluoro-3-methoxyphenyl)-5-fluoropicolinate; compound F is methyl 6-amino-2-(4-chloro-2-fluoro-3-methoxyphenyl)-5-methoxypyrimidine-4-carboxylate; and compound G is methyl 4-amino-3-chloro-6-(4-chloro-2-fluoro-3-methoxyphenyl)picolinate. Weighed amounts of technical grade compounds were placed in individual 120 mL glass vials and were dissolved in 20 mL of acetone to obtain concentrated stock solutions. […] The concentrated stock solutions obtained were diluted with 20 mL of an aqueous mixture containing 2.5% Agri-dex crop oil concentrate (v/v). The final application solutions contained 1.25% (v/v) Agri-dex crop oil concentrate. Generally, multiple concentrations were tested utilizing the same stock solution. Applications were made by injecting an appropriate amount of the application solution into the aqueous layer of the paddy. Control plants were treated in the same manner with the solvent blank.
(§3) The treated plants and control plants were placed in a greenhouse as described above and water was added as needed to maintain a paddy flood. After 3 weeks the condition of the test plants, compared with that of the untreated plants, was determined visually and scored on a scale of 0 to 100 percent where 0 corresponds to no injury and 100 corresponds to complete kill.
(§4) By applying the well-accepted probit analysis as described by J. Berkson in Journal of the American Statistical […], 48, 565 (1953) and by D. Finney in “Probit Analysis” Cambridge University Press (1952), the data gathered can be used to calculate GR50 and GR80 values, which are defined as growth reduction factors that correspond to the effective dose of herbicide required to kill or control 50 percent or 80 percent, respectively, of a target plant.

Series [2] has as its system Scirpus juncoides ROXB. (Japanese bulrush). Described as above. To be noted: Schoenoplectiella juncoides, 504 h; rice cropping systems, in-water applied (paddy), 35 g ae/ha, 21 DAA; may represent multiple trials; read-out: Visual Injury (%) SCPJU. The format is in vivo. Here is the method:
as §1, §2, §3, §4

Series [3] relates to Echinochloa colonum (L.) LINK (junglerice). In words: Postemergence foliar-applied herbicidal activity in direct seeded rice (Example 16). The format is in vivo. The note with it: Echinochloa colona, post-emergence, 504 h, rice cropping systems, 8.75 g ae/ha, 21 DAA, may represent multiple trials, read-out: Visual Injury (%) ECHCO.
Source text: (§5) Seeds or nutlets of the desired test plant species were planted in a soil matrix prepared by mixing a loam soil (43 percent silt, 19 percent clay, and 38 percent sand, with a pH of about 8.1 and an organic matter content of about 1.5 percent) and river sand in an 80 to 20 ratio. The soil matrix was contained in plastic pots with a surface area of 139.7 cm^2. When required to ensure good germination and healthy plants, a fungicide treatment and/or other chemical or physical treatment was applied. The plants were grown for 10-17 d in a greenhouse with an approximate 14-h photoperiod which was maintained at about 29° C. during the day and 26° C. during the night. Nutrients and water were added on a regular basis and supplemental lighting was provided with overhead metal halide 1000-Watt lamps as necessary. The plants were employed for testing when they reached the second or third true leaf stage.
(§6) Treatments consisted of esters of compounds 1-4, 6-8, 10, 11, 13-16, 20-31, 35, 38, 41 and 42 and A-E. Compound A is methyl 4-amino-3-chloro-6-(4-chloro-3-ethoxy-2-fluorophenyl)-5-fluoropicolinate; compound B is methyl 4-amino-3-chloro-6-(4-cyclopropylphenyl)-5-fluoropicolinate; compound C is methyl 4-amino-3-chloro-6-(2,4-dichloro-3-methoxyphenyl)picolinate; compound D is methyl 6-amino-2-(4-chloro-2-fluoro-3-methoxyphenyl)-5-vinylpyrimidine-4-carboxylate; and compound E is methyl 4-amino-3-chloro-6-(4-chloro-2-fluoro-3-methoxyphenyl)-5-fluoropicolinate. Weighed amounts of technical grade compounds were placed in 25 mL glass vials and dissolved in a volume of 97:3 v/v acetone-DMSO to obtain 12× stock solutions. […] The concentrated stock solutions were added to the spray solutions so that the final acetone and DMSO concentrations were 16.2% and 0.5%, respectively. Spray solutions were diluted to the appropriate final concentrations with the addition of 10 mL of an aqueous mixture of 1.5% (v/v) Agri-dex crop oil concentrate. Generally, multiple concentrations of spray solutions were formulated and tested utilizing the same stock solution. The final spray solutions contained 1.25% (v/v) Agri-dex crop oil concentrate. Compound requirements are based upon a 12 mL application volume at a rate of 187 L/ha. Spray solutions were applied to the plant material with an overhead Mandel track sprayer equipped with 8002E nozzles calibrated to deliver 187 L/ha over an application area of 0.503 square meters (m^2) at a spray height of 18 inches (43 cm) above average plant canopy height. Control plants were sprayed in the same manner with the solvent blank.
(§7) The treated plants and control plants were placed in a greenhouse as described above and watered by sub-irrigation to prevent wash-off of the test compounds. After 3 weeks, the condition of the test plants, compared with that of the untreated plants, was determined visually and scored on a scale of 0 to 100 percent where 0 corresponds to no injury and 100 corresponds to complete kill.
as §4

In series [4] the test system is Brachiaria platyphylla (GRISEB.) NASH (broadleaf signalgrass). Described as above. The note with it: rice cropping systems, 8.75 g ae/ha, 21 DAA, may represent multiple trials. The format is in vivo.
Source text: as §5, §6, §7, §4

In series [5] the test system is Cyperus difformis L. (small-flower flatsedge). The description is as above. The format is in vivo. The note with it: post-emergence, 504 h, rice cropping systems, foliar-applied, 8.75 g ae/ha, 21 DAA, may represent multiple trials, read-out: Visual Injury (%) CYPDI.
Source text: as §5, §6, §7, §4

Series [6] deals with Scirpus juncoides ROXB. (Japanese bulrush). The series is described as above. The format is in vivo. The note with it: Schoenoplectiella juncoides, post-emergence, 504 h; rice cropping systems, foliar-applied, 8.75 g ae/ha, 21 DAA; may represent multiple trials; read-out: Visual Injury (%) SCPJU.
Source text: as §5, §6, §7, §4

For series [7], the system named is Echinochloa crus-galli (L.) P.BEAUV. (barnyardgrass). The description is as above. The format is in vivo. The note with it: rice cropping systems, 8.75 g ae/ha, 21 DAA, may represent multiple trials.
Source text: as §5, §6, §7, §4

Series [8] concerns Cyperus rotundus L. (purple nutsedge). In words: In-water applied herbicidal activity in transplanted paddy rice (Example 17). The format is in vivo. The note with it: rice cropping systems, 35 g ae/ha, 21 DAA, may represent multiple trials. Here is the method:
as §1, §2, §3, §4

For series [9], the system named is Fimbristylis miliacea (L.) VAHL (globe fringerush). The description is as above. The format is in vivo. The note with it: rice cropping systems, in-water applied (paddy), 35 g ae/ha, 21 DAA; may represent multiple trials. Here is the method:
as §1, §2, §3, §4

With `COc1c(Cl)ccc(-c2cc(N)c(Cl)c(C(=O)OCc3ccccc3)n2)c1Cl` [Compound 38, benzyl 4-amino-3-chloro-6-(2,4-dichloro-3-methoxyphenyl)-picolinate], the pest or weed control at 35 g/ha in series [1] was found to be 99%; in [2], 100%. The results for the pest or weed control at 8.75 g/ha in series [3], in series [5] and in series [6] were 90%, 100% and 100%, respectively. Further, in series [4], the “Visual Injury (%) BRAPP” value is 90%.

On to `C=Cc1c(N)nc(-c2ccc(Cl)c(OC)c2F)nc1C(=O)OCc1ccccc1` [Compound 35, benzyl 6-amino-2-(4-chloro-2-fluoro-3-methoxyphenyl)-5-vinylpyrimidine-4-carboxylate], for which the melting point was in the range of 119 to 121 °C. Besides, the pest or weed control at 35 g/ha in series [1] stood at 76%. Besides, the pest or weed control at 8.75 g/ha in series [3] came out at 90%. The “Visual Injury (%) ECHCG” value in series [7] came out at 95%.

Turning to `COC(=O)c1nc(-c2ccc(Cl)c(OC)c2Cl)cc(N)c1Cl` [Compound C, methyl 4-amino-3-chloro-6-(2,4-dichloro-3-methoxyphenyl)picolinate, reference compound], the pest or weed control at 35 g/ha in series [1] turned out to be 36%; in series [2], 83%. Moreover, the pest or weed control at 8.75 g/ha in series [3] came to 84%; in [5], 96%; in series [6], 90%. The “Visual Injury (%) BRAPP” value in [4] came to 74%.

Consider `COc1c(Cl)ccc(-c2cc(N)c(Cl)c(C(=O)OCc3ccc(Cl)cc3Cl)n2)c1F` [Compound 17, 2,4-dichlorobenzyl 4-amino-3-chloro-6-(4-chloro-2-fluoro-3-methoxyphenyl)picolinate], for which the “Visual Injury (%) CYPRO” value in [8] stood at 100%. Further, in series [1], the pest or weed control at 35 g/ha came to 98%.

`C=Cc1c(N)nc(-c2ccc(Cl)c(OC)c2F)nc1C(=O)OC` [D, methyl 6-amino-2-(4-chloro-2-fluoro-3-methoxyphenyl)-5-vinylpyrimidine-4-carboxylate, reference compound]: in series [1], the pest or weed control at 35 g/ha worked out at 54%. For the same compound, in [3], the pest or weed control at 8.75 g/ha amounted to 79%. In addition, the “Visual Injury (%) ECHCG” value in series [7] came out at 87%.

As for `COc1ccc(COC(=O)c2nc(-c3ccc(Cl)c(OC)c3F)cc(N)c2Cl)cc1` [Compound 36, 4-methoxybenzyl 4-amino-3-chloro-6-(4-chloro-2-fluoro-3-methoxyphenyl)picolinate], in [9], the “Visual Injury (%) FIMMI” value is listed as 100%.

In general, melting point refers to the temperature, or range, at which the solid turns liquid.
